Laboratory results as given in US11858909B2, “Deuterated etoricoxib, methods of manufacture, and use thereof” (Tremeau Pharmaceuticals, Inc., priority 2021, dated 2024).
Where two headings read alike, the source gives them in different places.

Columns and labels:
[1] = Single dose crossover pharmacokinetic study in dogs; format: in vivo; settings: for AUC / Cmax: male, dog, plasma, po, single oral (gavage) dose, d3-etoricoxib 2.00 mg/kg, etoricoxib 1.98 mg/kg
Method: A single dose crossover study was conducted to compare the pharmacokinetics of d3-etoricoxib and non-isotopically enriched etoricoxib in dogs. Four male dogs were dosed, and animals received each of the following treatments sequentially, with a minimum of four days washout between doses.
Blood samples were taken at 0.083, 0.25, 0.5, 1, 2, 4, 6, 8, 12, and 24 hours post-dose. Plasma was analyzed for d3-etoricoxib or non-isotopically enriched etoricoxib concentration.

CYP3A4 [2] = molecular target: T1, CYP3A4 (Homo sapiens, UniProt P08684); assay: Metabolic stability in CYP3A4 incubations (formation of methylhydroxy metabolites); format: in vitro ADME; design: purchased Corning 456202; settings: for Formation of methylhydroxy metabolite relative to M1 formed from etoricoxib: human recombinant CYP3A4, over time (to 40 min), 1 μM; for Susceptibility to metabolism by CYP3A4 compared with non-isotopically enriched etoricoxib: human recombinant CYP3A4 incubations
T1 sequence (P08684 whole entry): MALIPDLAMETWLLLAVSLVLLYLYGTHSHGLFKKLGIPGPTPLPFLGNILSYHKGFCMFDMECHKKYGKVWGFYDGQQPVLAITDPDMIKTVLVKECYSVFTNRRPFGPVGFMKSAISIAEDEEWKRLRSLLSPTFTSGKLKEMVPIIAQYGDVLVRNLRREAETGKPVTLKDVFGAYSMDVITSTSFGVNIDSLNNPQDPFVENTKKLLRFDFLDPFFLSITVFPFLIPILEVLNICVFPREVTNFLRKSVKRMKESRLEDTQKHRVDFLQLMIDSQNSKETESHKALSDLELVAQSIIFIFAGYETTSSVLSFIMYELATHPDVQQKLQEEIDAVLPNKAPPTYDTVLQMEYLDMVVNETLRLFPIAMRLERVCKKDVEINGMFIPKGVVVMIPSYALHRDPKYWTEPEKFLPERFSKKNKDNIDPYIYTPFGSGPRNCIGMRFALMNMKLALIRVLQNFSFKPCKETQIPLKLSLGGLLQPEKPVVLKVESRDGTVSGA
Method: The metabolic stability of non-isotopically enriched etoricoxib, d3-etoricoxib, and an alternate deuterated form of etoricoxib, d4-etoricoxib (5-chloro-6′-methyl-3-(4-(methylsulfonyl)phenyl-2,3,5,6-d4)-2,3′-bipyridine, CAS No.: 1131345-14-6), in CYP3A4 incubations was evaluated. d4-Etoricoxib has the chemical structure:
Human recombinant CYP3A4 (Corning, item #456202, lot #9322001) was chosen for the assay conditions as CYP3A4 is the principle enzyme responsible for the metabolism of etoricoxib in humans. Formation of the methylhydroxy metabolites formed from etoricoxib, d3-etoricoxib, and d4-etoricoxib was monitored over time (Table 5, FIGS. 13 and 14).

human liver microsomes = assay: Metabolic stability with human liver microsomes (formation of M1 / d2-M1 metabolite); format: in vitro ADME; settings: human liver microsomes 0.5 mg/mL, 1 μM, over 60 minutes, NADPH and UDPGA
Method: The metabolic stability of non-isotopically enriched etoricoxib and d3-etoricoxib, with human liver microsomes was evaluated.
Etoricoxib is extensively metabolized in humans with <1% of a dose recovered in urine as the parent drug. The primary pathway for metabolism of etoricoxib in humans is through the production of the methylhydroxy metabolite of etoricoxib (“M1”). Metabolism of etoricoxib involves conversion primarily to the “M1” derivative, mainly (ca. 60%) by CYP3A4, with less contribution by CYPs 1A2, 2C9, 2C19 and 2D6 (ca. 40% collectively). See, e.g., Arcoxia® (etoricoxib) Australian Product Information, available at http://apps.medicines.org.au/files/mkparcox.pdf (last visited Apr. 9, 2021), the contents of which are herein incorporated by reference in their entirety. Production of the “M1” metabolite and d3-etoricoxib (“d2-M1”) was evaluated in this experiment throughout the incubation period.

[3] = tested on: CYPs 1A2, 2C9, 2C19 and 2D6; settings: humans; cited from earlier work
[4] = humans; cited from earlier work
CYP3A4 [5] = molecular target: T1, CYP3A4; settings: humans; cited from earlier work
[6] = equivalent oral doses, four male dogs
[7] = four male dogs, oral (gavage), 2.00 vs 1.98 mg/kg
[8] = Animal 1001, male dog, read-out: AUC0.5-24 h
[9] = Animal 1001, male dog, read-out: Cmax
[10] = Animal 1002, male dog, read-out: AUC0.5-24 h
[11] = Animal 1002, male dog, read-out: Cmax
[12] = Animal 1003, male dog, read-out: AUC0.5-24 h
[13] = Animal 1003, male dog, read-out: Cmax
[14] = Animal 1004, male dog, read-out: AUC0.5-24 h
[15] = Animal 1004, male dog, read-out: Cmax
[16] = Mean (SD) of four male dogs, read-out: AUC0.5-24 h, Mean (SD)
[17] = Mean (SD) of four male dogs, read-out: Cmax, Mean (SD)

**Q.** Which results are given for `[2H]C([2H])([2H])c1ccc(-c2ncc(Cl)cc2-c2ccc(S(C)(=O)=O)cc2)cn1` [d3-etoricoxib, 5-chloro-6′-(methyl-d3)-3-(4-(methylsulfonyl)phenyl)-2,3′-bipyridine]?
**A.** Cmax relative to non-isotopically enriched etoricoxib [1, 6]: higher Cmax; Metabolism in dogs relative to non-isotopically enriched etoricoxib [1, 6]: substantially resistant to metabolism; Total exposure (AUC) relative to non-isotopically enriched etoricoxib [1, 6]: higher total exposure; AUC0.5-24 h, Average % delta d3-etoricoxib vs etoricoxib [1, 7]: +48.6%; Cmax, Average % delta d3-etoricoxib vs etoricoxib [1, 7]: +54.9%; AUC [1, 8]: 516 ng·h/mL; Cmax [1, 9]: 628 ng/mL; AUC [1, 10]: 1020 ng·h/mL; Cmax [1, 11]: 791 ng/mL; AUC [1, 12]: 1260 ng·h/mL; Cmax [1, 13]: 593 ng/mL; AUC [1, 14]: 658 ng·h/mL; Cmax [1, 15]: 317 ng/mL; AUC [1, 16]: 865 ng·h/mL; Cmax [1, 17]: 604 ng/mL; Formation of methylhydroxy metabolite relative to M1 formed from etoricoxib (CYP3A4 [2]): about six-fold lower; Susceptibility to metabolism by CYP3A4 compared with non-isotopically enriched etoricoxib (CYP3A4 [2]): substantially different; Amount of d2-M1 metabolite formed relative to M1 formed from etoricoxib (human liver microsomes): approximately three-fold less

**Q.** Which results are given for `[2H]c1c([2H])c(S(C)(=O)=O)c([2H])c([2H])c1-c1cc(Cl)cnc1-c1ccc(C)nc1` [d4-etoricoxib, 5-chloro-6′-methyl-3-(4-(methylsulfonyl)phenyl-2,3,5,6-d4)-2,3′-bipyridine, reference compound]?
**A.** Formation of methylhydroxy metabolite relative to M1 formed from etoricoxib (CYP3A4 [2]): similar; Susceptibility to metabolism by CYP3A4 compared with non-isotopically enriched etoricoxib (CYP3A4 [2]): almost identical

**Q.** Which “Share of conversion to the M1 derivative by CYPs 1A2, 2C9, 2C19 and 2D6 collectively” value [3] does the source give for `Cc1ccc(-c2ncc(Cl)cc2-c2ccc(S(C)(=O)=O)cc2)cn1` [etoricoxib] here?
**A.** ca. 40%

**Q.** And the AUC [1, 8]?
**A.** 342 ng·h/mL

**Q.** And the Cmax [1, 9]?
**A.** 259 ng/mL

**Q.** What about the AUC [1, 10] of the same molecule?
**A.** 606 ng·h/mL

**Q.** What about the Cmax [1, 11] of the same molecule?
**A.** 426 ng/mL

**Q.** And the AUC [1, 12]?
**A.** 1130 ng·h/mL

**Q.** What about the Cmax [1, 13] of the same molecule?
**A.** 670 ng/mL

**Q.** What about the AUC [1, 14] of the same molecule?
**A.** 336 ng·h/mL

**Q.** And the Cmax [1, 15]?
**A.** 206 ng/mL

**Q.** And the AUC [1, 16]?
**A.** 582 ng·h/mL

**Q.** What about the Cmax [1, 17] of the same molecule?
**A.** 390 ng/mL

**Q.** What about the “Dose recovered in urine as the parent drug” value [4] of the same molecule?
**A.** < 1%

**Q.** What about the “Share of conversion to the M1 derivative by CYP3A4” value (CYP3A4 [5]) of the same molecule?
**A.** ca. 60%
